Laboratory results published in patent US20070073039A1, “Peptides that inhibit viral infections” (priority 2005, published 2007).
pEC50: −log10 of the molar value. Like-named read-outs stand apart in the source and are kept apart here.

How the values were obtained:
HCV [1] = assay: Intracellular HCV RNA by real time RT-QPCR after infection of Huh-7.5.1 cells with and without peptide; type: cell-based, Hepatitis C virus (JFH-1)
Experimental: To accurately quantify the inhibitory effect of the selected peptides on HCV infection, intracellular HCV RNA was measured after infection by real time RT-QPCR with and without peptide treatment. The peptide stock solution was diluted 1:100 and mixed with equal volume of viral supernatant (propagated from day 18 virus preparation post transfection) to a final concentration approximately 20 μM. The virus with peptide or 0.5% DMSO solvent control was then used to infect Huh-7.5.1 cells at a multiplicity of infection (MOI) of 0.1. After an adsorption for 4 hours at 37° C., the inoculum was removed. The cells were washed 2 times, overlaid with 120 μL fresh growth medium and incubated at 37° C. At the indicated time points, total cellular RNA was isolated by the guanidine thiocyanate method. The HCV RNA transcript level was measured by real time RT-QPCR with the primers 5′—
normalized to cellular GAPDH levels.
To define the antiviral action of peptide #1 (SEQ ID NO:43), the antiviral activity of a series of N-terminal and C-terminal truncations of peptide 1 was analyzed using the focus reduction assay and by measuring the reduction in intracellular HCV RNA as described.

HCV [2] = assay: HCV focus reduction assay; type: cell-based, Hepatitis C virus (JFH-1)
Experimental: To identify peptides that display antiviral activity against HCV infection, the peptide library was screened by an HCV focus reduction assay. The peptides were constituted in 100% DMSO at a final concentration 10 mg/mL, and stored in −20° C. The peptide stock solution was diluted 1:200 to a final concentration approximately 20 μM in complete DMEM growth medium containing 50 focus forming units (ffu) of HCV. The virus-peptide mixture was transferred to Huh-7.5.1 cells at a density of 8000 cells per well in a 96-well plate. After adsorption for 4 hours at 37° C., the inoculum was removed. The cells were washed 2 times, overlaid with 120 μL fresh growth medium and incubated at 37° C. After 3 days of culture, the cells were fixed with paraformaldehyde and immunostained with antibody against HCV nonstructural protein NS5A. The numbers of HCV foci were counted under fluorescent microscopy and the result is expressed as percentage (%) of mock with no peptide treatment but containing solvent 0.5% DMSO.
To determine whether the antiviral activity of peptide 1 is dependent on its primary amino acid sequence, four derivative peptides from peptide 1 were synthesized to a purity >95%. The four derivatives having the same composition of amino acids included (1) the reversed the sequence of peptide 1 (also called retro-peptide); (2) scrambled hydrophobic amino acids; (3) scrambled hydrophilic amino acids; and (4) a derivative in which the aspartic acid residues (D) were replaced with proline residues (P). The antiviral activity of the peptides was examined by HCV focus reduction assay at three peptide concentrations: 18 μM, 6 μM and 2 μM, as described above.

Dengue-2 [3] = assay: Dengue-2 infection of Vero cells, Intracellular FACS Assay; type: cell-based; settings: 20 μM
Experimental: Intracellular FACS Assay: Vero cells were seeded for 24 h pre-infection in 6-well plates. Cells were exposed to Dengue-2 in the presence of increasing concentrations of peptide (or DMSO as control). Viruses and peptide were washed away 2 h post-infection. Cells were taken for intracellular staining 3 days post-infection. Cells were stained with appropriate isotype control, Dengue Env, Dengue capsid or tubulin antibodies. Cells were analyzed by FACS.

Dengue-2 [4] = assay: Dengue-2 infection of Vero cells, Enzyme-linked Immunosorbent Assay; type: cell-based; settings: 1.25 μM, 5 days
Dengue-2 [5] = assay: as above; type: cell-based; settings: for Inhibition of Dengue Infection, α-Capsid 9A7 / Inhibition of Dengue Infection, α-DEN ENV: Vero cells, 5 days
Experimental: Enzyme-linked Immunosorbent Assay. Vero cells (80,000 cells/well/ml) were seeded for 24 h pre-infection in 24-well plates. Cells were exposed to Dengue-2 (derived from Vero cells) in the presence of increasing concentration of peptide (or DMSO as control). Viruses and peptide were not removed (cells were not washed) throughout the incubation. Infection was analyzed after 5 days using ELISA that measured the amounts of Dengue-2 capsid released in the supernatant of infected Vero cells.

HCV [6] = assay: Binding/attachment/uptake of HCV RNA by Huh-7.5.1 cells; type: cell-based, Hepatitis C virus (JFH-1); settings: 18 μM; 4 hours at 37° C.; cell-associated HCV RNA
Experimental: To define the mechanism of antiviral activity of peptide #1, its ability to prevent the binding/attachment/uptake by cells of viral RNA in an infectious inoculum cells was examined. Huh-7.5.1 cells were seeded at 8000 cells per well in a 96-well plate. Sixteen hours later, the cells were incubated with HCV at MOI=0.1 in the presence or absence of peptide at a concentration of 18 μM. After adsorption for 4 hours at 37° C., the virus-peptide inoculum was removed. The cells were washed 2 times, lysed and subjected to RNA analysis. The HCV RNA transcript level was measured by real time quantitative polymerase chain reaction (RT-QPCR) assay and normalized to cellular GAPDH levels. Inhibitory activity was quantified by comparing the amount of cell-associated HCV RNA in cells exposed to the virus-peptide inocula versus the virus-DMSO control.

[7] = Preliminary in vivo toxicity in mice
Experimental: As a preliminary measurement of the in vivo cytotoxicity of the peptides 1, 2 and 3 (see Table 4) a group of three mice (BALB/c mice, 7 weeks old, about 23 g) were each injected with 92 μg L-type peptide 1 ( ˜4 mg/kg) in 200 μL PBS (spun 14,000 rpm for 3 minutes before injection). In the control group, each of three mice was given 200 μL PBS containing 5% DMSO. The mice were monitored for acute toxicity during the first 3 hours after injection.
No change in appearance, activity or behavior was observed. The mice were then weighed on days 0, 3, 5, 7 and 10. Peptide-injected mice gained weight at the same rate as the controls.

[8] = Serum stability of L- and D-type peptides (10% FBS, 37° C., antiviral readout); type: in vitro ADME
Excerpt: Peptides composed of L-amino acids are susceptible to proteolysis, which could shorten their half-life and, thus, their biological activity. To examine this possibility and to determine if specific peptide-viral protein interactions mediate antiviral activity, peptide 1 was synthesized using all D-amino acids, purified to >95% homogeneity, and its antiviral activity and serum stability were compared with a similarly pure preparation of the L-type version of peptide #1. Both L- and D-type peptides were diluted 1:100 in complete growth medium (10% FBS) and mixed with an equal volume of viral supernatant.
In addition, to compare the serum stability of the L- and D-type peptides, the diluted peptide was incubated at 37° C. for 1 hour, 2 hours and 4 hours before mixing with viral supernatant. The virus-peptide mixture was then used to infect Huh-7.5.1 cells (MOI=0.1). After adsorption for 4 hours at 37° C., the virus-peptide inoculum was removed. The cells were washed 2 times, overlaid with 120 μL fresh growth medium and incubated at 37° C. for 3 days. Cells were lysed and subjected to RNA analysis. The HCV RNA transcript level was measured by real time RT-QPCR and normalized to cellular GAPDH levels. […] Thus, in addition to low immunogenicity and possible oral bioavailability, peptides composed of D-amino acids have the potential therapeutic advantage of enhanced serum stability.

HCV [9] = assay: Median effective concentration (EC50) by intracellular HCV RNA RT-QPCR; type: cell-based, Hepatitis C virus (JFH-1); settings: FIG. 12B-C; Huh-7.5.1 cells, MOI 0.1; 3 days; read-out: EC50 of the L- and D-forms of peptide 1
Experimental: (§1) To determine the median effective concentration (EC50) of peptide #1, peptide stock solution (3.6 mM in DMSO) was serially 2-fold diluted in DMSO. An aliquot of peptide from each dilution was then diluted 1:100 in complete growth medium and mixed with equal volume of virus supernatant. The virus-peptide mixture was then used to infect Huh-7.5.1 cells (MOI=0.1). After adsorption for 4 hours at 37° C., the virus-peptide inoculum was removed. The cells were washed 2 times, overlaid with 120 μL fresh growth medium and incubated at 37° C. for 3 days. Cells were lysed and subjected to RNA analysis. The HCV RNA transcript level was measured by real time RT-QPCR and normalized to cellular GAPDH levels. The inhibition of HCV infection was calculated by comparing the intracellular HCV RNA transcript between the peptide treatment and solvent control.
as §1, with “(EC50) of the L- and D-form” for “(EC50)”, “serially diluted” for “serially”, “2-fold” for “2-fold diluted”

MTT cytotoxicity assay = type: cell-based; settings: human, hepatocyte cell lines, read-out: LD50 (MTT cytotoxicity)
Experimental: Peptide cytotoxicity was measured by MTT cytotoxicity assay based on the protocol provided in the ATCC MTT assay kit (Cat #30-1010K). In brief, 5000-10,000 cells were seeded per well in a 96 well plate. Following overnight growth, 100 μL fresh medium plus 20 μL of 2-fold serially diluted peptide was added. Media without peptides was added to at least 3 wells as untreated controls. The cells were then incubated for 72 hours at 37° C., 5% CO2. After this incubation, 1/10 volume of MTT solution ([…] in PBS) was added to each well, and the cells were returned to the incubator. Two hours later, the medium was removed, 150 μL DMSO was added to dissolve the purple precipitate formazan, and the plate was shaken at 150 rpm for 10 minutes. Absorbance at 570 nm less background at 670 nm is a reliable measure of […]. Cytotoxicity (LD50) of individual peptides was defined as the peptide concentration that caused 50% cell death.

Compound: SWLRDIWDWICEVL [^C-14mer]
- Fold Inhibition on HCV RNA (24 h) (HCV [1]; 24 h, working concentration 18.4-27.5 μM per peptide): 20274.7 fold
- Fold Inhibition on HCV RNA (72 h) (HCV [1]; 72 h, working concentration 18.4-27.5 μM per peptide): 237172.4 fold
- Focus Reduction (72 h) (HCV [2]; 72 h, working concentration 18.4-27.5 μM per peptide, Mock 51): 0
- Inhibition of Dengue viral infection as detected by FACS (Dengue-2 [3]; FIG. 18): ~100%
- Inhibition of Dengue Infection, α-DEN ENV (Dengue-2 [4]): 0%
- Inhibition of Dengue Infection, α-Capsid 9A7 (Dengue-2 [5]; 1.25 μM): 11.4%
- Inhibition of Dengue Infection, α-Capsid 9A7 (Dengue-2 [5]; 5 μM): 22.7%
- Inhibition of Dengue Infection, α-DEN ENV (Dengue-2 [5]; 5 μM): 29.65%
- Inhibition of Dengue Infection, α-Capsid 9A7 (Dengue-2 [5]; 20 μM): 98.3%
- Inhibition of Dengue Infection, α-DEN ENV (Dengue-2 [5]; 20 μM): 97.8%
- Inhibition of Dengue viral infection as detected by ELISA (Dengue-2 [5]; FIG. 17, 20 μM): ~100%

Compound: CTMLVCGDDLVVICESAG [Peptide 2]
- HCV RNA fold inhibition 24 h 25 μM (HCV [1]; 24 h, 25 μM, Huh-7.5.1 cells, MOI 0.1, normalized to GAPDH): 86 fold
- HCV RNA fold inhibition 72 h 25 μM (HCV [1]; 72 h, 25 μM, Huh-7.5.1 cells, MOI 0.1, normalized to GAPDH): 40 fold
- Inhibition of HCV infection (HCV [2]; cell culture model of HCV infection): strongly inhibit HCV infection
- Fold Inhibition (HCV [2]; inhibition of HCV infection, peptide approximately 20 μM, Huh-7.5.1 cells, 3 days): 100.0 fold
- % of Mock (HCV [2]; number of HCV foci as % of mock (0.5% DMSO), peptide approximately 20 μM, Huh-7.5.1 cells, 3 days): 1.0%
- Fold inhibition of HCV infection (HCV [2]; peptide library screen, approximately 20 μM): more than ten-fold
- Blocking of viral binding/attachment/uptake (HCV [6]): significantly blocks viral binding/attachment/uptake
- In vivo toxicity observation ([7]; 92 μg ( ˜4 mg/kg) in 200 μL PBS, acute toxicity first 3 hours, weight to day 10): Peptides 1, 2 and 3 are Nontoxic in C57BL/6 Mice
- Weight(g) (d.0) ([7]; day 0, ˜4 mg/kg injected): 25.3 g
- Weight(g) (d.3) ([7]; day 3): 25.6 g
- Weight(g) (d.5) ([7]; day 5): 25.9 g
- Weight(g) (d.7) ([7]; day 7): 25.9 g
- Weight(g) (d.10) ([7]; day 10): 25.6 g

Compound: CC[C@@H](C)[C@@H](NC(=O)[C@@H](CC(=O)O)NC(=O)[C@@H](CCCNC(=N)N)NC(=O)[C@@H](CC(C)C)NC(=O)[C@@H](Cc1c[nH]c2ccccc12)NC(=O)[C@H](N)CO)C(=O)N[C@H](Cc1c[nH]c2ccccc12)C(=O)N[C@H](CC(=O)O)C(=O)N[C@H](Cc1c[nH]c2ccccc12)C(=O)N[C@@H](C(=O)N[C@H](CS)C(=O)N[C@H](CCC(=O)O)C(=O)N[C@@H](C(=O)N[C@H](CC(C)C)C(=O)N[C@H](CO)C(=O)N[C@H](CC(=O)O)C(=O)N[C@H](Cc1ccccc1)C(=O)N[C@H](CCCCN)C(=O)O)C(C)C)[C@H](C)CC [D-2022 peptide]
- Time entirely stable in 10% FBS at 37° C. [8]: at least 4 hours
- % of Dead cells PI (Dengue-2 [3]; propidium iodide staining, Vero cells 3 days post-infection): 3.83%
- pEC50 (HCV [9]): ~6.00
- CC50 at 72 h (MTT cytotoxicity assay; with FBS): 36.8 µM
- CC50 at 72 h (MTT cytotoxicity assay; without FBS): 3.7 µM
